Data as given in ChEMBL document CHEMBL1138698, “Ketoamide-based inhibitors of cysteine protease, cathepsin K: P3 modifications” (J Med Chem, 2004).

Legend:
[1] = target: T1, Cathepsin K (Homo sapiens, UniProt P43235); assay: Inhibitory potency against human Cathepsin K
T1 sequence (P43235 whole entry): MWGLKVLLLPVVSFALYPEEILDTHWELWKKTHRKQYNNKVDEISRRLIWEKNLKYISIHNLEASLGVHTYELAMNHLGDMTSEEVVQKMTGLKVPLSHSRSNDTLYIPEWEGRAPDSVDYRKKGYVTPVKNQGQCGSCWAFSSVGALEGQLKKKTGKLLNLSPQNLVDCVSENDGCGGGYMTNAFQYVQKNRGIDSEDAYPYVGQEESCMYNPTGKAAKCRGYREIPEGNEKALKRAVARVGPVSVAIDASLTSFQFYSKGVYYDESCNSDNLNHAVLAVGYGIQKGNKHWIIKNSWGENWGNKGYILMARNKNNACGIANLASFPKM

[2] = target: Cathepsin (L and K) (Homo sapiens) (UniProt P43235+P07711); assay: Selectivity for human Cathepsins L and K; format: protein assay
[3] = target: Cathepsin (H and K) (Homo sapiens) (UniProt P09668+P43235); assay: Selectivity for human Cathepsins H and K; format: protein assay
[4] = target: Cathepsin (S and K) (Homo sapiens) (UniProt P25774+P43235); assay: Selectivity for human Cathepsins S and K; format: protein assay
[5] = target: Cathepsin (B and K) (Homo sapiens) (UniProt P43235+P07858); assay: Selectivity for human Cathepsins B and K; format: protein assay
[6] = target: Cathepsin (V and K) (Homo sapiens) (UniProt P43235+O60911); assay: Selectivity for human Cathepsins V and K; format: protein assay
Sequence of Cathepsin (V and K) (Homo sapiens) (O60911 whole entry, looked up, one chain of several): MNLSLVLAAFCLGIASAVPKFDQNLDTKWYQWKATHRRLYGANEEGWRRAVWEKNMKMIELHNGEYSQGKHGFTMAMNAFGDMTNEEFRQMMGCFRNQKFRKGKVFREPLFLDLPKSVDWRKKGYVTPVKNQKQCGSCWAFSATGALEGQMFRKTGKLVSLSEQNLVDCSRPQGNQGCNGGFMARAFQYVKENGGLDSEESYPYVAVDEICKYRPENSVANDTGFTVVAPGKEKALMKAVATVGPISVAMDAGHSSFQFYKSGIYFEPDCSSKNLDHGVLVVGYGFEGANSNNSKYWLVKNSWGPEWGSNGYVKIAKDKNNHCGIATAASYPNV

Sequence of Cathepsin (H and K) (Homo sapiens) (P09668 whole entry, looked up, one chain of several): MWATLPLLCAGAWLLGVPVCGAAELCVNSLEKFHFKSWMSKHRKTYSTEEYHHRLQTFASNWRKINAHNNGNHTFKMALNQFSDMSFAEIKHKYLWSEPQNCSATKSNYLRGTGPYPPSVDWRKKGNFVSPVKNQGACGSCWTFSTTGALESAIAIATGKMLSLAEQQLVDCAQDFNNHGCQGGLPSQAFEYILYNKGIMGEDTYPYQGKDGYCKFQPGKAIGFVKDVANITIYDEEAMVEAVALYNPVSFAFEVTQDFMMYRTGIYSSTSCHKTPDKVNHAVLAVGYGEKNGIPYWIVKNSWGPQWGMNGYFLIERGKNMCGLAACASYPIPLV
Sequence of Cathepsin (L and K) (Homo sapiens) (P07711 whole entry, looked up, one chain of several): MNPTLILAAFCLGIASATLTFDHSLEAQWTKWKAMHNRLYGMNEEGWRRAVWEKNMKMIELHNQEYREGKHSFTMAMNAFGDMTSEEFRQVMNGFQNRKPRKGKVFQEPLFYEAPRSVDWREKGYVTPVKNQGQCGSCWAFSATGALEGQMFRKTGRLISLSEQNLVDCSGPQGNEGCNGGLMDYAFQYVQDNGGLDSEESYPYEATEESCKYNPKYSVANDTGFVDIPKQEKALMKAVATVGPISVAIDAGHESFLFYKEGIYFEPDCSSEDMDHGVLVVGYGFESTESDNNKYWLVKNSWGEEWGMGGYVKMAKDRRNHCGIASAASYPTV
Sequence of Cathepsin (S and K) (Homo sapiens) (P25774 whole entry, looked up, one chain of several): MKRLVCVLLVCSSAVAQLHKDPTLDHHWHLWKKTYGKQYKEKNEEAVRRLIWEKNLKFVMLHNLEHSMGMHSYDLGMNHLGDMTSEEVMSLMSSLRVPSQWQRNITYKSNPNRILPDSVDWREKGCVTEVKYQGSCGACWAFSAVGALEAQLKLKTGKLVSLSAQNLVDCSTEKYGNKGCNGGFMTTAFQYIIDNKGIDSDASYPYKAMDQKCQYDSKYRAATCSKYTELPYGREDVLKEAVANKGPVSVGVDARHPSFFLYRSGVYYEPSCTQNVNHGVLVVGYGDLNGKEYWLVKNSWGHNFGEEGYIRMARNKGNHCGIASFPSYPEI

SMILES | IC50 [1] | further results
CCCC[C@H](NC(=O)OCC1(CSc2nccn2C)CCC1)C(=O)C(=O)N[C@H](C)c1ccccc1 | 61 nM | 
CCCC[C@H](NC(=O)OCC1(CCCOc2ccnc(Cl)n2)CCC1)C(=O)C(=O)N[C@H](C)c1ccccc1 | > 12000 nM | 
CCCC[C@H](NC(=O)OCC1(CCCSc2nccn2C)CCC1)C(=O)C(=O)N[C@H](C)c1ccccc1 | 1900 nM | 
CCCC[C@H](NC(=O)OCC1(CSc2nccn2-c2ccccc2)CCC1)C(=O)C(=O)N[C@H](C)c1ccccc1 | 87 nM | 
CCCC[C@H](NC(=O)OCC1(CSc2nc3ccccc3o2)CCC1)C(=O)C(=O)N[C@H](C)c1ccccc1 | 51 nM | 
CCCC[C@H](NC(=O)OCC1(COc2nc(-c3ccccc3)ns2)CCC1)C(=O)C(=O)N[C@H](C)c1ccccc1 | 50 nM | 
CCCC[C@H](NC(=O)OCC1(CSc2ncc(-c3ccc(Cl)cc3)n2C)CCC1)C(=O)C(=O)N[C@H](C)c1ccccc1 | 230 nM | 
CCCC[C@H](NC(=O)OCC1(COc2ccnc(N3CCOCC3)n2)CCC1)C(=O)C(=O)N[C@H](C)c1ccccc1 | 54 nM | 
CCCC[C@H](NC(=O)OCC1(Cc2nc(-c3ccccc3)cs2)CCC1)C(=O)C(=O)N[C@H](C)c1ccccc1 | 5.5 nM | Selectivity [2]: 220; Selectivity [3]: > 230; Selectivity [4]: 22; Selectivity [5]: 660; Selectivity [6]: 20
CCCC[C@H](NC(=O)OCC1(CSc2nccc(-c3ccc(Cl)cc3)n2)CCC1)C(=O)C(=O)N[C@H](C)c1ccccc1 | 9.5 nM | 
CCCC[C@H](NC(=O)OCC1(CSc2ncccn2)CCC1)C(=O)C(=O)N[C@H](C)c1ccccc1 | 11 nM | 
CCCC[C@H](NC(=O)OCC1(COc2nnc(C)cc2-c2ccccc2)CCC1)C(=O)C(=O)N[C@H](C)c1ccccc1 | 57 nM | 
CCCC[C@H](NC(=O)OCC1(COc2ccnc(N3CCN(c4ccccc4)CC3)n2)CCC1)C(=O)C(=O)N[C@H](C)c1ccccc1 | 31 nM | 
CCCC[C@H](NC(=O)OCC1(COc2ncnc3ccsc23)CCC1)C(=O)C(=O)N[C@H](C)c1ccccc1 | 98 nM | 
CCCC[C@H](NC(=O)OCC1(COc2ccnc(Cl)n2)CCC1)C(=O)C(=O)N[C@H](C)c1ccccc1 | 85 nM | 
CCCC[C@H](NC(=O)OCC1(COc2nccs2)CCC1)C(=O)C(=O)N[C@H](C)c1ccccc1 | 37 nM | 
CCCC[C@H](NC(=O)OCC1(CCSc2nccn2C)CCC1)C(=O)C(=O)N[C@H](C)c1ccccc1 | > 12000 nM | 
CCCC[C@H](NC(=O)OCC1(CSc2nccs2)CCC1)C(=O)C(=O)N[C@H](C)c1ccccc1 | 17 nM | Selectivity [2]: 250; Selectivity [3]: > 720; Selectivity [4]: 4; Selectivity [5]: 390; Selectivity [6]: 41
CCCC[C@H](NC(=O)OCC1(COc2nc(-c3ccc(C)cc3)cs2)CCC1)C(=O)C(=O)N[C@H](C)c1ccccc1 | 150 nM | 
CCCC[C@H](NC(=O)OCC1(COc2ccnc(N3CCN(C)CC3)n2)CCC1)C(=O)C(=O)N[C@H](C)c1ccccc1 | 54 nM | 
CCCC[C@H](NC(=O)OCC1(COc2ncccn2)CCC1)C(=O)C(=O)N[C@H](C)c1ccccc1 | 260 nM | 
